Laboratory results published in patent US6362369B1, “Phthalic acid diamide derivatives fluorine-containing aniline compounds as starting material, agricultural and horticultural insecticides, and a method for application of the insecticides” (Nihon Nohyaku Co., Ltd., priority 1997, dated 2002).

Key:
Type in all cases: in vivo
[1] = test system: common cutworm (Spodoptera Litura); test: Insecticidal effect on common cutworm (Test Example 2); conditions: 500 ppm, 25° C.; for Insecticidal effect, Test Example 2: cabbage leaf immersed; for Insecticidal effect, Test Example 2 / Insecticidal effect on common cutworm (Test Example 2), judged grade: eight days after inoculation; for Insecticidal effect (Test Example 2), judged from mortality / Insecticidal effect on common cutworm (Test Example 2), judged grade: cabbage leaf dip; for Insecticidal effect (Test Example 2), judged from mortality: 8 days after inoculation; for Insecticidal effect on common cutworm (Test Example 2), judged grade: second-instar larvae
Method in brief: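 Second-instar larvae placed in 9 cm Petri dishes with air-dried treated material, held at 25 °C. Dead and live insects counted 8 days after inoculation; mortality calculated and scored against a set criterion. Triplicate groups of 10 insects.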

[2] = test system: rice leafroller (Cnaphalocrocis medinalis); test: Insecticidal effect on rice leafroller (Test Example 3); conditions: 500 ppm, 25° C., humidity 70%; for Insecticidal effect, Test Example 3: rice lamina immersed; for Insecticidal effect, Test Example 3 / Insecticidal effect on rice leafroller (Test Example 3), judged grade: four days after inoculation; for Insecticidal effect (Test Example 3), judged from mortality / Insecticidal effect on rice leafroller (Test Example 3), judged grade: rice lamina dip; for Insecticidal effect (Test Example 3), judged from mortality: 4 days after inoculation; for Insecticidal effect on rice leafroller (Test Example 3), judged grade: third-instar larvae
Method in brief: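 Groups of 10 third-instar larvae, in triplicate, are placed on air-dried lamina resting on wet filter paper. Incubation runs four days at 25° C with 70% humidity before survivors and dead are tallied.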

[3] = test system: diamondback moth (Plutella xylostella); test: Insecticidal effect on diamondback moth (Test Example 1); conditions: for Insecticidal effect, Test Example 1 / Insecticidal effect (Test Example 1), judged from mortality: diamondback moth; for Insecticidal effect (Test Example 1), judged from mortality: judged by the criterion of Test Example 1; for Insecticidal effect on diamondback moth (Test Example 1), judged grade: mortality judged according to the criterion shown in Test Example 1
Method in brief: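 Chinese cabbage seedlings carrying eggs laid by released adult moths were immersed in treatment, air-dried and held at 25° C. Hatched insects were counted six days after immersion, and mortality was calculated and scored against a fixed criterion. Three replicate groups of 10 insects were used.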

[4] = second-instar larvae of common cutworm
[5] = third-instar larvae of rice leafroller
[6] = judged by the mortality criterion of Test Example 1
[7] = common cutworm second-instar larvae
[8] = rice leafroller third-instar larvae
[9] = mortality judged by criterion of Test Example 1

CCOP(=O)(OCC)c1ccc(NC(=O)c2cccc(Cl)c2C(=O)NC(C)C)c(C)c1 [compound 161]
Insecticidal effect, Test Example 2 [1, 4]: D (79-50)
Insecticidal effect, Test Example 3 [2, 5]: A (100)
Insecticidal effect, Test Example 1 [3, 6]: A (100)

COc1ccc(NC(=O)c2cccc(Br)c2C(=O)NC(C)C)c(C)c1 [compound 282]
Insecticidal effect, Test Example 2 [1, 4]: A (100)
Insecticidal effect, Test Example 3 [2, 5]: A (100)
Insecticidal effect, Test Example 1 [3, 6]: A (100)

CCN(CC)C(=O)c1c(Cl)cccc1C(=O)Nc1ccc(C(F)(C(F)(F)F)C(F)(F)F)cc1C [compound 1537]
Insecticidal effect (Test Example 2), judged from mortality [1, 4]: A (100)
Insecticidal effect (Test Example 3), judged from mortality [2, 5]: A (100)
Insecticidal effect (Test Example 1), judged from mortality [3]: A (100)

CC(C)NC(=O)c1cccc([N+](=O)[O-])c1C(=O)Nc1ccc(C(F)(F)C(F)(F)C(F)(F)F)cc1Cl [compound 741]
Insecticidal effect on common cutworm (Test Example 2), judged grade [1]: A (100)
Insecticidal effect on rice leafroller (Test Example 3), judged grade [2]: A (100)
Insecticidal effect on diamondback moth (Test Example 1), judged grade [3]: A (100)

COc1ccc(-c2ccccc2)cc1NC(=O)c1cccc(Cl)c1C(=O)NC(C)C [compound 1296]
Insecticidal effect, Test Example 2 [1, 7]: A (100)
Insecticidal effect, Test Example 3 [2, 8]: A (100)
Insecticidal effect, Test Example 1 [3, 9]: A (100)

Cc1cc(C#N)ccc1NC(=O)c1cccc(I)c1C(=O)NC(C)C [compound 1389]
Insecticidal effect, Test Example 2 [1, 7]: A (100)
Insecticidal effect, Test Example 3 [2, 8]: A (100)
Insecticidal effect, Test Example 1 [3, 9]: A (100)

Cc1c(Cl)ccc(NC(=O)c2cccc(I)c2C(=O)NC(C)C)c1C [compound 365]
Insecticidal effect, Test Example 2 [1, 4]: A (100)
Insecticidal effect, Test Example 3 [2, 5]: A (100)
Insecticidal effect, Test Example 1 [3, 6]: A (100)

CC(C)NC(=O)c1ccccc1C(=O)Nc1ccc(OC(F)F)cc1C(F)(F)F [compound 83]
Insecticidal effect, Test Example 2 [1, 4]: A (100)
Insecticidal effect, Test Example 3 [2, 5]: A (100)
Insecticidal effect, Test Example 1 [3, 6]: A (100)

CC(C)(C)NC(=O)c1c(I)cccc1C(=O)Nc1ccc(OC(F)(F)F)cc1Cl [compound 1023]
Insecticidal effect, Test Example 2 [1, 7]: A (100)
Insecticidal effect, Test Example 3 [2, 8]: A (100)
Insecticidal effect, Test Example 1 [3, 9]: A (100)

Cc1c(NC(=O)c2cccc([N+](=O)[O-])c2C(=O)NC(C)C)cccc1OC(F)(F)C(F)Cl (stereo not drawn) [compound 713]
Insecticidal effect on common cutworm (Test Example 2), judged grade [1]: B (99-90)
Insecticidal effect on rice leafroller (Test Example 3), judged grade [2]: D (79-50)
Insecticidal effect on diamondback moth (Test Example 1), judged grade [3]: A (100)

Cc1cc(Oc2ccc(C(F)(F)F)cn2)ccc1NC(=O)c1cccc(I)c1C(=O)NC(C)C [compound 399]
Insecticidal effect, Test Example 2 [1, 4]: A (100)
Insecticidal effect, Test Example 3 [2, 5]: A (100)
Insecticidal effect, Test Example 1 [3, 6]: A (100)

CC(C)NC(=O)c1c(I)cccc1C(=O)Nc1ccc(-c2csc(C(F)(F)F)n2)cc1 [compound 1765]
Insecticidal effect (Test Example 2), judged from mortality [1, 4]: A (100)
Insecticidal effect (Test Example 3), judged from mortality [2, 5]: A (100)
Insecticidal effect (Test Example 1), judged from mortality [3]: A (100)

CCC(C)(C)NC(=O)c1c(I)cccc1C(=O)Nc1ccc(OC(F)(F)F)cc1C [compound 1566]
Insecticidal effect (Test Example 2), judged from mortality [1, 4]: A (100)
Insecticidal effect (Test Example 3), judged from mortality [2, 5]: A (100)
Insecticidal effect (Test Example 1), judged from mortality [3]: A (100)

CCCN(CC)C(=O)c1c(I)cccc1C(=O)Nc1ccc(OC(F)(F)F)cc1C [compound 1574]
Insecticidal effect (Test Example 2), judged from mortality [1, 4]: A (100)
Insecticidal effect (Test Example 3), judged from mortality [2, 5]: A (100)
Insecticidal effect (Test Example 1), judged from mortality [3]: A (100)

CC(C)NC(=O)c1c(Cl)cccc1C(=O)Nc1ccc(OC(F)(F)C(F)OC(F)(F)C(F)(F)C(F)(F)F)cc1 (stereo not drawn) [compound 93]
Insecticidal effect, Test Example 2 [1, 4]: A (100)
Insecticidal effect, Test Example 3 [2, 5]: A (100)
Insecticidal effect, Test Example 1 [3, 6]: A (100)

CC(C)(C)NC(=O)c1c(I)cccc1C(=O)Nc1cc2c(cc1Cl)OC(F)(F)C(F)(F)O2 [compound 1645]
Insecticidal effect (Test Example 2), judged from mortality [1, 4]: A (100)
Insecticidal effect (Test Example 3), judged from mortality [2, 5]: A (100)
Insecticidal effect (Test Example 1), judged from mortality [3]: A (100)

Cc1cc(OC(F)F)c(Cl)cc1NC(=O)c1c(I)cccc1C(=O)NC(C)C [compound 470]
Insecticidal effect on common cutworm (Test Example 2), judged grade [1]: C (89-80)
Insecticidal effect on rice leafroller (Test Example 3), judged grade [2]: C (89-80)
Insecticidal effect on diamondback moth (Test Example 1), judged grade [3]: A (100)

CNC(=O)c1c(I)cccc1C(=O)Nc1ccc(C(F)(F)C(F)(F)F)cc1C [compound 1311]
Insecticidal effect, Test Example 2 [1, 7]: A (100)
Insecticidal effect, Test Example 3 [2, 8]: A (100)
Insecticidal effect, Test Example 1 [3, 9]: A (100)
